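Interpolation was linear, between the two tested concentrations surrounding the appropriate level; five concentrations were tested over 48 hours in 96-well plates. GI50: concentration for 50% inhibition of growth.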 Activity calls are given as the source filed them. Rule as the data show it: active = GI50 up to about 1.1 µM and inactive = higher.
Columns and labels:
Experiment in all cases: DTP human tumour cell line panel, 48 h
[1] = system: A498
[2] = system: CCRF-CEM
[3] = system: HCT-116
[4] = system: HL-60
[5] = system: HT-29
[6] = system: LOX IMVI
[7] = system: MOLT-4
[8] = system: NCI-H23
[9] = system: NCI-H460
[10] = system: NCI/ADR-RES
[11] = system: OVCAR-5
[12] = system: SK-MEL-28
[13] = system: SK-MEL-2
[14] = system: SK-MEL-5
[15] = system: SNB-75
[16] = system: SW-620
[17] = system: T47D
[18] = system: TK-10
[19] = system: UACC-62

CC1(C)CCCC2CC2CCC(C)(C)C1=O (stereo not drawn)
GI50 [1]: > 100 µM (inactive) | GI50 [2]: 15.7 µM (inactive) | GI50 [3]: 78.2 µM (inactive) | GI50 [4]: 18.1 µM (inactive) | GI50 [5]: 44.7 µM (inactive) | GI50 [6]: 27.5 µM (inactive) | GI50 [7]: 29.2 µM (inactive) | GI50 [8]: > 100 µM (inactive) | GI50 [9]: 34.8 µM (inactive) | GI50 [10]: 28.8 µM (inactive) | GI50 [11]: 46.5 µM (inactive) | GI50 [12]: > 100 µM (inactive) | GI50 [13]: 31.8 µM (inactive) | GI50 [14]: 42.9 µM (inactive) | GI50 [15]: 71 µM (inactive) | GI50 [16]: > 100 µM (inactive) | GI50 [17]: > 100 µM (inactive) | GI50 [18]: > 100 µM (inactive) | GI50 [19]: > 100 µM (inactive)

CCCCNC(=O)c1cc2c(cc1Cl)Sc1nccn1S2(=O)=O
GI50 [1]: > 100 µM (inactive) | GI50 [2]: 77.6 µM (inactive) | GI50 [3]: 31 µM (inactive) | GI50 [4]: 41.3 µM (inactive) | GI50 [5]: > 100 µM (inactive) | GI50 [6]: 30.3 µM (inactive) | GI50 [7]: 79.6 µM (inactive) | GI50 [8]: > 100 µM (inactive) | GI50 [9]: 44.3 µM (inactive) | GI50 [10]: 79.6 µM (inactive) | GI50 [11]: > 100 µM (inactive) | GI50 [12]: > 100 µM (inactive) | GI50 [13]: 70 µM (inactive) | GI50 [14]: 0.0116 µM (active) | GI50 [15]: 17.5 µM (inactive) | GI50 [16]: > 100 µM (inactive) | GI50 [17]: 64 µM (inactive) | GI50 [18]: > 100 µM (inactive) | GI50 [19]: 86.5 µM (inactive)

COC(=O)C1CCC(=O)N1C(c1ccc2c(c1)OCO2)c1ccc2c(c1)OCO2 (stereo not drawn)
GI50 [1]: > 100 µM (inactive) | GI50 [2]: > 100 µM (inactive) | GI50 [3]: > 100 µM (inactive) | GI50 [4]: > 100 µM (inactive) | GI50 [5]: > 100 µM (inactive) | GI50 [6]: > 100 µM (inactive) | GI50 [7]: > 100 µM (inactive) | GI50 [8]: > 100 µM (inactive) | GI50 [9]: > 100 µM (inactive) | GI50 [10]: > 100 µM (inactive) | GI50 [11]: > 100 µM (inactive) | GI50 [12]: > 100 µM (inactive) | GI50 [13]: > 100 µM (inactive) | GI50 [14]: > 100 µM (inactive) | GI50 [15]: > 100 µM (inactive) | GI50 [16]: > 100 µM (inactive) | GI50 [17]: > 100 µM (inactive) | GI50 [18]: > 100 µM (inactive) | GI50 [19]: > 100 µM (inactive)

NC(=O)C1=C(O)C[C@@H]2CC3Cc4cccc(O)c4C(=O)C3=C(O)[C@]2(O)C1=O (stereo partly drawn)
GI50 [1]: 2.74 µM (inactive) | GI50 [2]: 0.873 µM (active) | GI50 [3]: 1.8 µM (inactive) | GI50 [4]: 2.83 µM (inactive) | GI50 [5]: 0.339 µM (active) | GI50 [6]: 1.77 µM (inactive) | GI50 [7]: 1.61 µM (inactive) | GI50 [8]: 1.85 µM (inactive) | GI50 [9]: 1.56 µM (inactive) | GI50 [10]: 3.24 µM (inactive) | GI50 [11]: 0.449 µM (active) | GI50 [12]: 4 µM (inactive) | GI50 [13]: 1.86 µM (inactive) | GI50 [14]: 1.36 µM (inactive) | GI50 [15]: 2.43 µM (inactive) | GI50 [16]: 3.57 µM (inactive) | GI50 [17]: 2.63 µM (inactive) | GI50 [18]: 4.86 µM (inactive) | GI50 [19]: 2.15 µM (inactive)

Nc1c(F)c(F)c2c(c1F)N(CCCCCl)c1ccccc1S2
GI50 [1]: > 100 µM (inactive) | GI50 [2]: > 100 µM (inactive) | GI50 [3]: > 100 µM (inactive) | GI50 [4]: > 100 µM (inactive) | GI50 [5]: > 100 µM (inactive) | GI50 [6]: > 100 µM (inactive) | GI50 [7]: > 100 µM (inactive) | GI50 [8]: > 100 µM (inactive) | GI50 [9]: > 100 µM (inactive) | GI50 [10]: > 100 µM (inactive) | GI50 [11]: > 100 µM (inactive) | GI50 [12]: > 100 µM (inactive) | GI50 [13]: > 100 µM (inactive) | GI50 [14]: > 100 µM (inactive) | GI50 [15]: 74.6 µM (inactive) | GI50 [16]: > 100 µM (inactive) | GI50 [17]: > 100 µM (inactive) | GI50 [18]: > 100 µM (inactive) | GI50 [19]: > 100 µM (inactive)

CO/C(N)=C(C#N)/N=C/c1ccsc1
GI50 [1]: > 100 µM (inactive) | GI50 [2]: 24 µM (inactive) | GI50 [3]: 40 µM (inactive) | GI50 [4]: 13.1 µM (inactive) | GI50 [5]: 40.7 µM (inactive) | GI50 [6]: 18.6 µM (inactive) | GI50 [7]: 47.6 µM (inactive) | GI50 [8]: 37.3 µM (inactive) | GI50 [9]: > 100 µM (inactive) | GI50 [10]: > 100 µM (inactive) | GI50 [11]: > 100 µM (inactive) | GI50 [12]: 85.5 µM (inactive) | GI50 [13]: 37.3 µM (inactive) | GI50 [14]: 28.2 µM (inactive) | GI50 [15]: 56 µM (inactive) | GI50 [16]: 53.2 µM (inactive) | GI50 [17]: 68.4 µM (inactive) | GI50 [18]: > 100 µM (inactive) | GI50 [19]: 33.4 µM (inactive)

CC(Oc1ccc(Cl)cc1Cl)C(=O)NN1C(=O)CSC1c1ccccc1 (stereo not drawn)
GI50 [1]: 42.8 µM (inactive) | GI50 [2]: 66.7 µM (inactive) | GI50 [3]: 45.7 µM (inactive) | GI50 [4]: 27.3 µM (inactive) | GI50 [5]: > 100 µM (inactive) | GI50 [6]: 69 µM (inactive) | GI50 [7]: > 100 µM (inactive) | GI50 [8]: 86.5 µM (inactive) | GI50 [9]: > 100 µM (inactive) | GI50 [10]: 86.3 µM (inactive) | GI50 [11]: > 100 µM (inactive) | GI50 [12]: 50.5 µM (inactive) | GI50 [13]: 45.4 µM (inactive) | GI50 [14]: 70.8 µM (inactive) | GI50 [15]: 34.7 µM (inactive) | GI50 [16]: > 100 µM (inactive) | GI50 [17]: 56.8 µM (inactive) | GI50 [18]: > 100 µM (inactive) | GI50 [19]: 50.2 µM (inactive)
